According to US7994209B2, “3-phenoxymethylpyrrolidine compounds” (Theravance, Inc., priority 2009, dated 2011):

target: T1, hSERT (Homo sapiens, UniProt P31645); experiment: hSERT neurotransmitter uptake assay (3H-5-HT), Assay 2; format: cell-based; design: expressed in transfected cells; host or cells: HEK-293; details: serotonin reuptake inhibition, 3H-5-HT uptake, HEK-293 hSERT cells (values without asterisk); read-out: SERT pIC50 (converted)
T1 sequence (P31645 whole entry): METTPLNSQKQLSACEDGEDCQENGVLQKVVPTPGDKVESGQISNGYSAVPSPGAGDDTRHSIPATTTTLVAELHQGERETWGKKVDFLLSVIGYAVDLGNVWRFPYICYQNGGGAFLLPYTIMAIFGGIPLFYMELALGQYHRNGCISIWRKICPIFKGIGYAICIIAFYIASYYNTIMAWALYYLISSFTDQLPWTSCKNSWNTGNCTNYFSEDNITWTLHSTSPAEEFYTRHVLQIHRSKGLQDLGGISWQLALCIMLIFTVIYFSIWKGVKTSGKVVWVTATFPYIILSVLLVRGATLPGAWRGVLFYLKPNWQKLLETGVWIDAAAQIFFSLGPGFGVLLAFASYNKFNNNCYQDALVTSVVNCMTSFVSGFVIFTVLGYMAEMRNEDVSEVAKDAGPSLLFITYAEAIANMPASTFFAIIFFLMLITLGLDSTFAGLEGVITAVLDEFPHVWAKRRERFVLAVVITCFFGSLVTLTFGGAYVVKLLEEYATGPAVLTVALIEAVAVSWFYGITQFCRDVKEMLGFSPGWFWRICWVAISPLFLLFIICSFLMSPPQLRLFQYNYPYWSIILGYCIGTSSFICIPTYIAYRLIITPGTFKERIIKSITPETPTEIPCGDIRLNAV

| Structure (SMILES) | IC50 [nM] |
| --- | --- |
| CC(C)CC(Oc1cc(Cl)cc(Cl)c1)C1CCNC1 (stereo not shown) [Example 10-78, 3-[1-(3,5-Dichlorophenoxy)-3-methylbutyl]pyrrolidine] | ≤ 10 |
| CC(C)C[C@@H](Oc1cc(Cl)cc(Cl)c1)[C@H]1CCNC1 [Example 10-79, (S)-3-[(R)-1-(3,5-Dichlorophenoxy)-3-methylbutyl]pyrrolidine] | ≤ 10 |
| CC(C)C[C@H](Oc1cc(F)cc(Cl)c1)[C@H]1CCNC1 [Example 10-81, (S)-3-[(S)-1-(3-Chloro-5-fluorophenoxy)-3-methylbutyl]pyrrolidine] | ≤ 10 |
| CC(C)CC(Oc1cc(F)cc(Cl)c1)C1CCNC1 (stereo not shown) [Example 10-82, 3-[1-(3-Chloro-5-fluorophenoxy)-3-methylbutyl]pyrrolidine] | ≤ 10 |
| CC(C)CC(Oc1c(Cl)c(F)cc(F)c1Cl)C1CCNC1 (stereo not shown) [Example 10-84, 3-[1-(2,6-Dichloro-3,5-difluorophenoxy)-3-methylbutyl]pyrrolidine] | ≤ 10 |
| CC(C)C[C@H](Oc1c(F)c(F)cc(F)c1Cl)[C@H]1CCNC1 [Example 10-86, (S)-3-[(S)-1-(2-Chloro-3,5,6-trifluorophenoxy)-3-methylbutyl]pyrrolidine] | ≤ 10 |
| CC[C@H](Oc1cccc2ccccc12)[C@H]1CCNC1 [Example 13, (S)-3-[(s)-1-(Naphthalen-1-yloxy)propyl]pyrrolidine] | ≤ 10 |

Continued, values first:

| IC50 [nM] | Structure (SMILES) |
| --- | --- |
| ≤ 10 | CC[C@@H](Oc1cccc2ccccc12)[C@H]1CCNC1 [Example 14-1, (S)-3-[(R)-1-(Naphthalen-1-yloxy)propyl]pyrrolidine] |
| ≤ 10 | CCC[C@@H](Oc1cccc2ccccc12)[C@H]1CCNC1 [Example 14-2, (S)-3-[(R)-1-(Naphthalen-1-yloxy)butyl]pyrrolidine] |
| ≤ 10 | CCC[C@H](Oc1cccc2ccccc12)[C@H]1CCNC1 [Example 14-3, (S)-3-[(S)-1-(Naphthalen-1-yloxy)butyl]pyrrolidine] |
| ≤ 10 | CC(C)[C@H](Oc1cccc2ccccc12)[C@H]1CCNC1 [Example 14-5, (S)-3-[(S)-2-Methyl-1-(naphthalen-1-yloxy)propyl]pyrrolidine] |
| ≤ 316 | Cc1ccccc1O[C@@H](C1CC1)[C@H]1CCNC1 [Example 16-3, (S)-3-((S)cyclopropyl-o-tolyloxymethyl)pyrrolidine] |
| ≤ 10 | Clc1cccc(O[C@H](C2CC2)[C@H]2CCNC2)c1Cl [Example 16-7, (S)-3-[(R)cyclopropyl-(2,3-dichlorophenoxy)methyl]pyrrolidine] |

target: T2, hNET (Homo sapiens, UniProt P23975); experiment: hNET membrane radioligand binding assay (3H-nisoxetine), Assay 1; details: not given
T2 sequence (P23975 whole entry): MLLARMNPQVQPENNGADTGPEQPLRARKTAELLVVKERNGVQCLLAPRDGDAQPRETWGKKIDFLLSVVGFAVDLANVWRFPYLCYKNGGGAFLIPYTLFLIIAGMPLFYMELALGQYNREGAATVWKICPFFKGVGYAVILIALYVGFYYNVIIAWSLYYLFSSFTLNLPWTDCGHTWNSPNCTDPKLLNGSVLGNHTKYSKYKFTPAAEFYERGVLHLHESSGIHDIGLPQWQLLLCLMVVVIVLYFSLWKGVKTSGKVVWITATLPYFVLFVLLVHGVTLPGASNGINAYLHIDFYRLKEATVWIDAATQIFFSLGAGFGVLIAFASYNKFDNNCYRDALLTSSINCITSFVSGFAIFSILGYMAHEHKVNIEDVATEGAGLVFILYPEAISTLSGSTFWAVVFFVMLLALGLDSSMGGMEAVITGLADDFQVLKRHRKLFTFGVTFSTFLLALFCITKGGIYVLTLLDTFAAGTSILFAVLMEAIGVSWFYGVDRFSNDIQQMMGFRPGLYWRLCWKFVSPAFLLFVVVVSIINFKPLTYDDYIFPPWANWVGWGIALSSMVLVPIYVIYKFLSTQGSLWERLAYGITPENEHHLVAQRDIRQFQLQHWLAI

| Structure (SMILES) | Ki [nM] |
| --- | --- |
| CC(C)CC(Oc1cc(Cl)cc(Cl)c1)C1CCNC1 (stereo not shown) [Example 10-78, 3-[1-(3,5-Dichlorophenoxy)-3-methylbutyl]pyrrolidine] | ≤ 10 |
| CC(C)C[C@@H](Oc1cc(Cl)cc(Cl)c1)[C@H]1CCNC1 [Example 10-79, (S)-3-[(R)-1-(3,5-Dichlorophenoxy)-3-methylbutyl]pyrrolidine] | ≤ 10 |
| CC(C)C[C@H](Oc1cc(F)cc(Cl)c1)[C@H]1CCNC1 [Example 10-81, (S)-3-[(S)-1-(3-Chloro-5-fluorophenoxy)-3-methylbutyl]pyrrolidine] | ≤ 10 |
| CC(C)CC(Oc1cc(F)cc(Cl)c1)C1CCNC1 (stereo not shown) [Example 10-82, 3-[1-(3-Chloro-5-fluorophenoxy)-3-methylbutyl]pyrrolidine] | ≤ 10 |
| CC(C)CC(Oc1c(Cl)c(F)cc(F)c1Cl)C1CCNC1 (stereo not shown) [Example 10-84, 3-[1-(2,6-Dichloro-3,5-difluorophenoxy)-3-methylbutyl]pyrrolidine] | ≤ 10 |
| CC(C)C[C@H](Oc1c(F)c(F)cc(F)c1Cl)[C@H]1CCNC1 [Example 10-86, (S)-3-[(S)-1-(2-Chloro-3,5,6-trifluorophenoxy)-3-methylbutyl]pyrrolidine] | ≤ 10 |
| CC[C@H](Oc1cccc2ccccc12)[C@H]1CCNC1 [Example 13, (S)-3-[(s)-1-(Naphthalen-1-yloxy)propyl]pyrrolidine] | ≤ 10 |

Now from value to compound:

| Ki [nM] | Structure (SMILES) |
| --- | --- |
| ≤ 10 | CC[C@@H](Oc1cccc2ccccc12)[C@H]1CCNC1 [Example 14-1, (S)-3-[(R)-1-(Naphthalen-1-yloxy)propyl]pyrrolidine] |
| ≤ 10 | CCC[C@@H](Oc1cccc2ccccc12)[C@H]1CCNC1 [Example 14-2, (S)-3-[(R)-1-(Naphthalen-1-yloxy)butyl]pyrrolidine] |
| ≤ 10 | CCC[C@H](Oc1cccc2ccccc12)[C@H]1CCNC1 [Example 14-3, (S)-3-[(S)-1-(Naphthalen-1-yloxy)butyl]pyrrolidine] |
| ≤ 10 | CC(C)[C@H](Oc1cccc2ccccc12)[C@H]1CCNC1 [Example 14-5, (S)-3-[(S)-2-Methyl-1-(naphthalen-1-yloxy)propyl]pyrrolidine] |
| ≤ 10 | Cc1ccccc1O[C@@H](C1CC1)[C@H]1CCNC1 [Example 16-3, (S)-3-((S)cyclopropyl-o-tolyloxymethyl)pyrrolidine] |
| ≤ 10 | Clc1cccc(O[C@H](C2CC2)[C@H]2CCNC2)c1Cl [Example 16-7, (S)-3-[(R)cyclopropyl-(2,3-dichlorophenoxy)methyl]pyrrolidine] |

target: T1, hSERT; experiment: hSERT membrane radioligand binding assay (3H-citalopram), Assay 1; details: SERT pKi, hSERT HEK-293 membranes, 1.0 nM 3H-citalopram; values given as lower bounds

| Structure (SMILES) | Ki [nM] |
| --- | --- |
| CC(C)CC(Oc1cc(Cl)cc(Cl)c1)C1CCNC1 (stereo not shown) [Example 10-78, 3-[1-(3,5-Dichlorophenoxy)-3-methylbutyl]pyrrolidine] | ≤ 10 |
| CC(C)C[C@@H](Oc1cc(Cl)cc(Cl)c1)[C@H]1CCNC1 [Example 10-79, (S)-3-[(R)-1-(3,5-Dichlorophenoxy)-3-methylbutyl]pyrrolidine] | ≤ 10 |
| CC(C)C[C@H](Oc1cc(F)cc(Cl)c1)[C@H]1CCNC1 [Example 10-81, (S)-3-[(S)-1-(3-Chloro-5-fluorophenoxy)-3-methylbutyl]pyrrolidine] | ≤ 10 |
| CC(C)CC(Oc1cc(F)cc(Cl)c1)C1CCNC1 (stereo not shown) [Example 10-82, 3-[1-(3-Chloro-5-fluorophenoxy)-3-methylbutyl]pyrrolidine] | ≤ 10 |
| CC(C)CC(Oc1c(Cl)c(F)cc(F)c1Cl)C1CCNC1 (stereo not shown) [Example 10-84, 3-[1-(2,6-Dichloro-3,5-difluorophenoxy)-3-methylbutyl]pyrrolidine] | ≤ 10 |
| CC(C)C[C@H](Oc1c(F)c(F)cc(F)c1Cl)[C@H]1CCNC1 [Example 10-86, (S)-3-[(S)-1-(2-Chloro-3,5,6-trifluorophenoxy)-3-methylbutyl]pyrrolidine] | ≤ 10 |
| CC[C@H](Oc1cccc2ccccc12)[C@H]1CCNC1 [Example 13, (S)-3-[(s)-1-(Naphthalen-1-yloxy)propyl]pyrrolidine] | ≤ 10 |

The remaining lines, values ahead:

| Ki [nM] | Structure (SMILES) |
| --- | --- |
| ≤ 10 | CC[C@@H](Oc1cccc2ccccc12)[C@H]1CCNC1 [Example 14-1, (S)-3-[(R)-1-(Naphthalen-1-yloxy)propyl]pyrrolidine] |
| ≤ 10 | CCC[C@@H](Oc1cccc2ccccc12)[C@H]1CCNC1 [Example 14-2, (S)-3-[(R)-1-(Naphthalen-1-yloxy)butyl]pyrrolidine] |
| ≤ 10 | CCC[C@H](Oc1cccc2ccccc12)[C@H]1CCNC1 [Example 14-3, (S)-3-[(S)-1-(Naphthalen-1-yloxy)butyl]pyrrolidine] |
| ≤ 10 | CC(C)[C@H](Oc1cccc2ccccc12)[C@H]1CCNC1 [Example 14-5, (S)-3-[(S)-2-Methyl-1-(naphthalen-1-yloxy)propyl]pyrrolidine] |
| ≤ 100 | Cc1ccccc1O[C@@H](C1CC1)[C@H]1CCNC1 [Example 16-3, (S)-3-((S)cyclopropyl-o-tolyloxymethyl)pyrrolidine] |
| ≤ 10 | Clc1cccc(O[C@H](C2CC2)[C@H]2CCNC2)c1Cl [Example 16-7, (S)-3-[(R)cyclopropyl-(2,3-dichlorophenoxy)methyl]pyrrolidine] |

target: T2, hNET; experiment: hNET neurotransmitter uptake assay (3H-NE), Assay 2; format: cell-based; design: expressed in transfected cells; host or cells: HEK-293; details: norepinephrine reuptake inhibition, 3H-NE uptake, HEK-293 hNET cells (values without asterisk); read-out: NET pIC50 (converted)

| Structure (SMILES) | IC50 [nM] |
| --- | --- |
| CC(C)CC(Oc1cc(Cl)cc(Cl)c1)C1CCNC1 (stereo not shown) [Example 10-78, 3-[1-(3,5-Dichlorophenoxy)-3-methylbutyl]pyrrolidine] | ≤ 10 |
| CC(C)C[C@@H](Oc1cc(Cl)cc(Cl)c1)[C@H]1CCNC1 [Example 10-79, (S)-3-[(R)-1-(3,5-Dichlorophenoxy)-3-methylbutyl]pyrrolidine] | ≤ 10 |
| CC(C)C[C@H](Oc1cc(F)cc(Cl)c1)[C@H]1CCNC1 [Example 10-81, (S)-3-[(S)-1-(3-Chloro-5-fluorophenoxy)-3-methylbutyl]pyrrolidine] | ≤ 10 |
| CC(C)CC(Oc1cc(F)cc(Cl)c1)C1CCNC1 (stereo not shown) [Example 10-82, 3-[1-(3-Chloro-5-fluorophenoxy)-3-methylbutyl]pyrrolidine] | ≤ 10 |
| CC(C)CC(Oc1c(Cl)c(F)cc(F)c1Cl)C1CCNC1 (stereo not shown) [Example 10-84, 3-[1-(2,6-Dichloro-3,5-difluorophenoxy)-3-methylbutyl]pyrrolidine] | ≤ 10 |
| CC(C)C[C@H](Oc1c(F)c(F)cc(F)c1Cl)[C@H]1CCNC1 [Example 10-86, (S)-3-[(S)-1-(2-Chloro-3,5,6-trifluorophenoxy)-3-methylbutyl]pyrrolidine] | ≤ 10 |
| CC[C@H](Oc1cccc2ccccc12)[C@H]1CCNC1 [Example 13, (S)-3-[(s)-1-(Naphthalen-1-yloxy)propyl]pyrrolidine] | ≤ 10 |

Further lines, results first:

| IC50 [nM] | Structure (SMILES) |
| --- | --- |
| ≤ 10 | CC[C@@H](Oc1cccc2ccccc12)[C@H]1CCNC1 [Example 14-1, (S)-3-[(R)-1-(Naphthalen-1-yloxy)propyl]pyrrolidine] |
| ≤ 10 | CCC[C@@H](Oc1cccc2ccccc12)[C@H]1CCNC1 [Example 14-2, (S)-3-[(R)-1-(Naphthalen-1-yloxy)butyl]pyrrolidine] |
| ≤ 10 | CCC[C@H](Oc1cccc2ccccc12)[C@H]1CCNC1 [Example 14-3, (S)-3-[(S)-1-(Naphthalen-1-yloxy)butyl]pyrrolidine] |
| ≤ 10 | CC(C)[C@H](Oc1cccc2ccccc12)[C@H]1CCNC1 [Example 14-5, (S)-3-[(S)-2-Methyl-1-(naphthalen-1-yloxy)propyl]pyrrolidine] |
| ≤ 10 | Cc1ccccc1O[C@@H](C1CC1)[C@H]1CCNC1 [Example 16-3, (S)-3-((S)cyclopropyl-o-tolyloxymethyl)pyrrolidine] |
| ≤ 10 | Clc1cccc(O[C@H](C2CC2)[C@H]2CCNC2)c1Cl [Example 16-7, (S)-3-[(R)cyclopropyl-(2,3-dichlorophenoxy)methyl]pyrrolidine] |
